Assay results as given in patent publication US8354447B2, “mGLU receptors antagonists for treating disorders associated with mGLU receptors including addiction and depression” (The Scripps Research Institute, priority 2002, dated 2013).
Several values for one entry are separate records, joined by “and”; a condition that tells them apart may be missing. Identical values can stand only once. Like-named read-outs stand apart in the source and are kept apart here.

Columns and labels:
male Wistar rats [1] = test: ICSS thresholds during spontaneous nicotine withdrawal; assay type: in vivo, rat
Description: (§1) Animals were trained to respond according to a modification of the discrete-trial current-threshold procedure of Kornetsky and Esposito (Fed Proc 38:2473-2476, 1979), which has been described in detail previously (Markou and Koob, 1992 Physiol Behav 51:111-119). Briefly, a trial was initiated by the delivery of a non-contingent electrical stimulus. […] The current intensity delivered was adjusted for each animal and typically ranged from 50 to 200 μA. […] After a variable inter-trial interval (7.5-12.5 sec, average of 10 sec), another trial was initiated with the delivery of a non-contingent electrical stimulus. […] Responding during the inter-trial interval delayed the onset of the next trial by 12.5 sec. Current levels were varied in alternating descending and ascending series. A set of three trials was presented for each current intensity. Current intensities were altered in 5 μA steps. In each testing session, four alternating descending-ascending series were presented. […] The overall threshold of the session was defined as the mean of the thresholds for the four individual series. Each testing session was ˜30 min in duration. The latency between the onset of the non-contingent stimulus and a positive response was recorded as the response latency. The response latency for each test session was defined as the mean response latency of all trials during which a positive response occurred. After establishment of stable ICSS reward thresholds, rats were tested in the ICSS procedure once daily except for the spontaneous nicotine withdrawal experiment when rats were tested at time-points according to the experimental design.
Osmotic mini-pumps were surgically removed from nicotine-treated rats (n=15) (defined as rats having been prepared with mini-pumps delivering 3.16 mg/kg/day nicotine free-base for at least seven days) or corresponding control rats (n=17; rats prepared with vehicle-containing mini-pumps). All rats were then tested in the ICSS procedure at 12, 18, 24, 36, 48 and 72 hr after the removal of osmotic mini-pumps. These time points were chosen based on the time course of threshold elevations previously observed during spontaneous nicotine withdrawal after removal of nicotine-delivering osmotic mini-pumps (Harrison et al., 2001, Neuropsychopharmacology 25:55-71; K.L.). […] Thirty min before being tested at the 18 h time-point, one group of nicotine withdrawing and one group of control rats were injected with LY341495 (1 mg/kg); the remaining rats were injected with vehicle.

male Wistar rats [2] = details: nicotine 0.25 mg/kg SC
Description: Trials began with an electrical stimulus followed by a 7.5-s response window within which the animal could make a response to receive a second contingent stimulus identical to the initial noncontingent stimulus. A response during this 7.5-s window was considered a positive response, whereas the lack of a response was considered a negative response. Additional responses during a 2-s period immediately following a positive response had no consequence. The intertrial interval (ITI) that followed either a positive response or the end of the response window (in the case of a negative response) ranged from 7.5 to 12.5 s with an average duration of 10 s. […] Subjects then were tested on a current-threshold procedure in which stimulus intensities were varied during four alternating descending and ascending series with a step size of 5 mA. Blocks of three trials were offered at each current step with the starting current of the first descending series set at 30-40 mA above the subjects' individual baseline thresholds estimated at the end of preliminary training. […] An ascending series was terminated after two consecutive blocks of trials during which the animal made positive responses on at least two out of the three trials or after 15 successive increments were presented. The mean of the four current thresholds from the alternating series was defined as the subject's ICSS threshold for that session. A series was terminated after either 15 stimulus increments (or decrements) had occurred, or after the determination of the threshold for the series (see below). Each test session typically lasted 30 min.

[3] = 9 mg/kg/day nicotine salt (3.16 mg/kg, free base) by osmotic mini-pump; cited from earlier work
male Wistar rats [4] = test system: male Wistar rats
Description: as §1
Systemic administration experiments. These experiments investigated whether nicotine withdrawal, as measured by elevations in ICSS thresholds, could be precipitated in nicotine-treated rats by systemic administration of an agonist at mGluII receptors (LY314582), an agonist at GABAB receptors (CGP44532), or antagonists at mGlu5 (MPEP), NMDA (MK-801) or AMPA/Kainate (NBQX) glutamate receptors. For each drug tested, rats were trained in the ICSS paradigm until stable baseline responding was achieved, defined as ≦10% variation in thresholds for 3 consecutive days and requiring approximately 14 days of daily testing. […] One group was then prepared with subcutaneous osmotic mini-pumps delivering vehicle and the second group with mini-pumps delivering 9 mg/kg/day nicotine hydrogen tartrate (3.16 mg/kg/day nicotine free base). There was a minimum seven-day interval after mini-pump implantation, during which ICSS reward thresholds continued to be measured daily, before the effect of any systemically administered drug on reward thresholds was evaluated.

drug-naïve rats = details: cited from earlier work
rats = details: 2.5-10 mg/kg i.p.; cited from earlier work
[5] = MPEP 0.01 mg/kg i.p., Nicotine-treated rats
[6] = MPEP 0.01 mg/kg i.p., Vehicle-treated rats
[7] = MPEP 0.05 mg/kg i.p., Nicotine-treated rats
[8] = MPEP 0.05 mg/kg i.p., Vehicle-treated rats
[9] = MPEP 0.1 mg/kg i.p., Nicotine-treated rats
[10] = MPEP 0.1 mg/kg i.p., Vehicle-treated rats
[11] = MPEP 0.5 mg/kg i.p., Nicotine-treated rats
[12] = MPEP 0.5 mg/kg i.p., Vehicle-treated rats
[13] = MPEP 1 mg/kg i.p., Nicotine-treated rats
[14] = MPEP 1 mg/kg i.p., Vehicle-treated rats
[15] = MPEP 2 mg/kg i.p., Nicotine-treated rats
[16] = MPEP 2 mg/kg i.p., Vehicle-treated rats
[17] = MPEP 3 mg/kg i.p., Nicotine-treated rats
[18] = MPEP 3 mg/kg i.p., Vehicle-treated rats

CN1CCCC1c1cccnc1 (single isomer, unassigned; (-)) [nicotine, (−)-1-methyl-2-(3-pyridyl) pyrrolidine]
ICSS reward threshold elevation (male Wistar rats [1]; 12 h after removal of mini-pumps delivering 3.16 mg/kg/day nicotine free-base, two groups before treatment (n=8, n=7)): 117.67±3.1% and 119.93±3.5%
ICSS Thresholds (male Wistar rats [1]; withdrawal from chronic nicotine treatment): produced robust ICSS threshold elevations compared to control rats
brain reward thresholds (male Wistar rats [2]): resulted in lowering of brain reward thresholds
stable plasma nicotine levels [3]: ~44 ng/mL

Cc1cccc(C#Cc2ccccc2)n1 [MPEP, 2-methyl-6-(phenylethynyl)-pyridine]
ICSS Thresholds (male Wistar rats [4]; [5]): 93.86 ± 6.0 percentage of baseline
ICSS response Latencies (male Wistar rats [4]; [5]): 101.50 percentage of baseline
ICSS Thresholds (male Wistar rats [4]; [6]): 98.75 ± 3.5 percentage of baseline
ICSS response Latencies (male Wistar rats [4]; [6]): 99.75 ± 3.4 percentage of baseline
ICSS Thresholds (male Wistar rats [4]; [7]): 94.11 ± 2.6 percentage of baseline
ICSS response Latencies (male Wistar rats [4]; [7]): 103.48 percentage of baseline
ICSS Thresholds (male Wistar rats [4]; [8]): 101.27 ± 4.1 percentage of baseline
ICSS response Latencies (male Wistar rats [4]; [8]): 104.87 ± 3.3 percentage of baseline
ICSS Thresholds (male Wistar rats [4]; [9]): 103.84 ± 1.2 percentage of baseline
ICSS response Latencies (male Wistar rats [4]; [9]): 102.54 percentage of baseline
ICSS Thresholds (male Wistar rats [4]; [10]): 105.13 ± 3.2 percentage of baseline
ICSS response Latencies (male Wistar rats [4]; [10]): 105.13 ± 4.8 percentage of baseline
ICSS Thresholds (male Wistar rats [4]; [11]): 104.02 ± 2.2 percentage of baseline
ICSS response Latencies (male Wistar rats [4]; [11]): 99.47 percentage of baseline
ICSS Thresholds (male Wistar rats [4]; [12]): 103.01 ± 2.7 percentage of baseline
ICSS response Latencies (male Wistar rats [4]; [12]): 103.20 ± 4.4 percentage of baseline
ICSS Thresholds (male Wistar rats [4]; [13]): 105.81 ± 3.3 percentage of baseline
ICSS response Latencies (male Wistar rats [4]; [13]): 99.12 percentage of baseline
ICSS Thresholds (male Wistar rats [4]; [14]): 103.70 ± 3.0 percentage of baseline
ICSS response Latencies (male Wistar rats [4]; [14]): 100.72 ± 2.1 percentage of baseline
ICSS Thresholds (male Wistar rats [4]; [15]): 121.17 ± 6.2 percentage of baseline
ICSS response Latencies (male Wistar rats [4]; [15]): 101.31 percentage of baseline
ICSS Thresholds (male Wistar rats [4]; [16]): 111.21 ± 2.3 percentage of baseline
ICSS response Latencies (male Wistar rats [4]; [16]): 107.60 ± 2.6 percentage of baseline
ICSS Thresholds (male Wistar rats [4]; [17]): 119.11 ± 5.5 percentage of baseline
ICSS response Latencies (male Wistar rats [4]; [17]): 102.22 percentage of baseline
ICSS Thresholds (male Wistar rats [4]; [18]): 111.52 ± 4.8 percentage of baseline
ICSS response Latencies (male Wistar rats [4]; [18]): 103.58 ± 2.3 percentage of baseline
ICSS reward thresholds (male Wistar rats [4]; MPEP 0.01-0.1 mg/kg, nicotine-treated or control rats): did not affect reward thresholds
ICSS reward thresholds (male Wistar rats [4]; MPEP 0.5-3 mg/kg): elevated reward thresholds in nicotine-treated and control rats
ICSS response Latencies (male Wistar rats [4]; MPEP 0.5-3 mg/kg, either group): had no effect on response latencies
reward-lowering effect of nicotine in a brain reward stimulation procedure (drug-naïve rats; 0.25 mg/kg nicotine (Harrison et al. 2002)): had no effect on the reward-lowering effect of 0.25 mg/kg nicotine
dose that elevated ICSS thresholds in drug-naïve rats (drug-naïve rats; previous studies (Harrison et al., 2002; Macey et al., 2001)): ≥ 3 mg/kg
exploratory locomotor activity (rats): had no effect on exploratory locomotor activity in rats
